# Results from paper PMC12005229, “Final results from the phase Ia/Ib study of the novel bromodomain and extra-terminal domain inhibitor, BI 894999, in patients with advanced solid tumors or diffuse large B-cell lymphoma” (ESMO Open, 2025).
# Several values for one entry are separate records, joined by “and”; a condition that tells them apart may be missing. Equal entries are not always repeated. Entries after “also recorded” stand apart in the source; their conditions may differ. Where two headings read alike, the source gives them in different places.
# Experiments:
# [1] = test system: colorectal cancer (CRC) cell lines; parameters: method as in earlier work; conditions: cited from earlier work
# [2] = test system: nuclear protein in testis (NUT) carcinoma xenograft models; parameters: method as in PMID 35444289; conditions: cited from earlier work
# [3] = test system: patients with solid tumors; parameters: method as in PMID 37556913; conditions: cited from earlier work; for maximum tolerated dose (MTD): solid tumors
# patients with DLBCL = experiment: phase Ia DLBCL extension: DLTs, MTD, adverse events, exposure; type: in vivo; conditions: for DLT grade ≥3 / DLT / DLT duration / DLT grade / DLT outcome: individual patient events
# Excerpt: The extension to the phase Ia dose escalation evaluated schedules B and C for patients with DLBCL.
# [4] = DLBCL phase Ia extension n = 18
# [5] = DLBCL, on-treatment period, schedule B 2.0 mg
# [6] = DLBCL, on-treatment period, schedule C 4.0/2.0 mg
# [7] = DLBCL, on-treatment period, schedule C 5.0/2.5 mg
# [8] = DLBCL, schedule B 1.5 mg, MTD evaluation period
# [9] = DLBCL, schedule B 2.0 mg, MTD evaluation period
# [10] = DLBCL, schedule B 2.5 mg, MTD evaluation period
# [11] = phase Ia DLBCL, MTD evaluation period
smiles,measurement,setting,value
CNc1nc(-c2nc3ccc(N4CCN(C)CC4)cc3n2Cc2ccccc2)cn2c(C)nnc12 [BI 894999],activity against colorectal cancer (CRC) cell lines,[1],demonstrated activity
same,effect in NUT carcinoma xenograft models,[2],tumor regressions
same,"disease control (CR, PR or SD)","[3]; initial phase Ia, investigator's assessment",26.0%
same,best response PR,[3]; initial phase Ia,3.9%
same,patients with grade ≥3 DLTs,[3]; initial phase Ia,22 of 77
same,maximum tolerated dose (MTD),[3]; schedule A (days 1-21 of 3-week cycle),1.5 mg
same,maximum tolerated dose (MTD),[3]; schedule B (days 1-14 of 3-week cycle),2.5 mg
same,AEs leading to death,patients with DLBCL; [4],1 (5.6) n (%)
same,AEs leading to discontinuation of trial drug,patients with DLBCL; [4],4 (22.2) n (%)
same,AEs leading to dose reduction,patients with DLBCL; [4],3 (16.7) n (%)
same,Any AE,patients with DLBCL; [4],18 (100) n (%)
same,DLT in on-treatment period,patients with DLBCL; [4],8 (44.4) n (%)
same,Treatment-related AEs,patients with DLBCL; [4],15 (83.3) n (%)
same,Treatment-related serious AEs,patients with DLBCL; [4],2 (11.1) n (%)
same,"Anemia, treatment-related AE, any grade",patients with DLBCL; DLBCL phase Ia n = 18,5 (27.8) n (%)
same,"Anemia, treatment-related AE, grade ≥3",patients with DLBCL; DLBCL phase Ia n = 18,5 (27.8) n (%)
same,"Asthenia, treatment-related AE, any grade",patients with DLBCL; DLBCL phase Ia n = 18,2 (11.1) n (%)
same,"Asthenia, treatment-related AE, grade ≥3",patients with DLBCL; DLBCL phase Ia n = 18,0 n (%)
same,"Decreased appetite, treatment-related AE, any grade",patients with DLBCL; DLBCL phase Ia n = 18,4 (22.2) n (%)
same,"Decreased appetite, treatment-related AE, grade ≥3",patients with DLBCL; DLBCL phase Ia n = 18,0 n (%)
same,"Decreased platelet count, treatment-related AE, any grade",patients with DLBCL; DLBCL phase Ia n = 18,2 (11.1) n (%)
same,"Decreased platelet count, treatment-related AE, grade ≥3",patients with DLBCL; DLBCL phase Ia n = 18,2 (11.1) n (%)
same,"Diarrhea, treatment-related AE, any grade",patients with DLBCL; DLBCL phase Ia n = 18,9 (50.0) n (%)
same,"Diarrhea, treatment-related AE, grade ≥3",patients with DLBCL; DLBCL phase Ia n = 18,0 n (%)
same,"Dysgeusia, treatment-related AE, any grade",patients with DLBCL; DLBCL phase Ia n = 18,2 (11.1) n (%)
same,"Dysgeusia, treatment-related AE, grade ≥3",patients with DLBCL; DLBCL phase Ia n = 18,0 n (%)
same,"Epistaxis, treatment-related AE, any grade",patients with DLBCL; DLBCL phase Ia n = 18,2 (11.1) n (%)
same,"Epistaxis, treatment-related AE, grade ≥3",patients with DLBCL; DLBCL phase Ia n = 18,0 n (%)
same,"Fatigue, treatment-related AE, any grade",patients with DLBCL; DLBCL phase Ia n = 18,4 (22.2) n (%)
same,"Fatigue, treatment-related AE, grade ≥3",patients with DLBCL; DLBCL phase Ia n = 18,0 n (%)
same,"Hematoma, treatment-related AE, any grade",patients with DLBCL; DLBCL phase Ia n = 18,2 (11.1) n (%)
same,"Hematoma, treatment-related AE, grade ≥3",patients with DLBCL; DLBCL phase Ia n = 18,0 n (%)
same,"Muscle spasms, treatment-related AE, any grade",patients with DLBCL; DLBCL phase Ia n = 18,2 (11.1) n (%)
same,"Muscle spasms, treatment-related AE, grade ≥3",patients with DLBCL; DLBCL phase Ia n = 18,0 n (%)
same,"Nausea, treatment-related AE, any grade",patients with DLBCL; DLBCL phase Ia n = 18,5 (27.8) n (%)
same,"Nausea, treatment-related AE, grade ≥3",patients with DLBCL; DLBCL phase Ia n = 18,0 n (%)
same,"Neutropenia, treatment-related AE, any grade",patients with DLBCL; DLBCL phase Ia n = 18,4 (22.2) n (%)
same,"Neutropenia, treatment-related AE, grade ≥3",patients with DLBCL; DLBCL phase Ia n = 18,3 (16.7) n (%)
same,"Thrombocytopenia, treatment-related AE, any grade",patients with DLBCL; DLBCL phase Ia n = 18,11 (61.1) n (%)
same,"Thrombocytopenia, treatment-related AE, grade ≥3",patients with DLBCL; DLBCL phase Ia n = 18,8 (44.4) n (%)
same,"Troponin increased, treatment-related AE, any grade",patients with DLBCL; DLBCL phase Ia n = 18,2 (11.1) n (%)
same,"Troponin increased, treatment-related AE, grade ≥3",patients with DLBCL; DLBCL phase Ia n = 18,1 (5.6) n (%)
same,DLT grade ≥3,"patients with DLBCL; DLBCL, on-treatment period, schedule B 1.5 mg",Increased troponin
same,"DLT duration, melena",patients with DLBCL; [5],7 days
same,"DLT grade, melena",patients with DLBCL; [5],3
same,DLT grade ≥3,patients with DLBCL; [5],Thrombocytopenia; also recorded: Melena
same,DLT grade ≥3,"patients with DLBCL; DLBCL, on-treatment period, schedule B 2.5 mg",Thrombocytopenia; also recorded: Sepsis; also recorded: Febrile neutropenia
same,"DLT grade, decreased platelet count",patients with DLBCL; [6],4
same,DLT grade ≥3,patients with DLBCL; [6],Decreased platelet
same,"DLT duration, thrombocytopenia",patients with DLBCL; [7],8 days
same,"DLT grade, neutropenia",patients with DLBCL; [7],4
same,"DLT grade, thrombocytopenia",patients with DLBCL; [7],4
same,DLT grade ≥3,patients with DLBCL; [7],Neutropenia; also recorded: Thrombocytopenia
same,DLT,patients with DLBCL; [8],Increased troponin
same,DLT duration,patients with DLBCL; [8],5 days
same,DLT grade,patients with DLBCL; [8],3
same,DLT outcome,patients with DLBCL; [8],Recovered
same,DLT,patients with DLBCL; [9],Thrombocytopenia
same,DLT duration,patients with DLBCL; [9],11 days
same,DLT grade,patients with DLBCL; [9],4
same,DLT outcome,patients with DLBCL; [9],Not recovered
same,DLT,patients with DLBCL; [10],Thrombocytopenia; also recorded: Sepsis; also recorded: Febrile neutropenia
same,DLT duration,patients with DLBCL; [10],5 days and 6 days and 7 days and 2 days
same,DLT grade,patients with DLBCL; [10],4 and 3
same,DLT outcome,patients with DLBCL; [10],Not recovered; also recorded: Recovered
same,maximum tolerated dose (MTD),"patients with DLBCL; DLBCL, schedule B (days 1-14/21)",1.5 mg
same,maximum tolerated dose (MTD),"patients with DLBCL; DLBCL, schedule C",not declared
same,"anemia, grade ≥3 treatment-related AE",patients with DLBCL; phase Ia DLBCL,27.8%
same,"anemia, treatment-related AE of any grade",patients with DLBCL; phase Ia DLBCL,27.8%
same,"decreased platelet count, grade ≥3 treatment-related AE",patients with DLBCL; phase Ia DLBCL,11.1%
same,"decreased platelet count, treatment-related AE of any grade",patients with DLBCL; phase Ia DLBCL,11.1%
same,"diarrhea, treatment-related AE of any grade",patients with DLBCL; phase Ia DLBCL,50.0%
same,discontinuation because of DLT,patients with DLBCL; phase Ia DLBCL,11.1%
same,discontinuation because of other AEs,patients with DLBCL; phase Ia DLBCL,5.6%
same,discontinuation because of progressive disease,patients with DLBCL; phase Ia DLBCL,83.3%
same,dose discontinuations due to AEs,patients with DLBCL; phase Ia DLBCL,22.2%
same,dose reductions due to AEs,patients with DLBCL; phase Ia DLBCL,16.7%
same,"fatigue, treatment-related AE of any grade",patients with DLBCL; phase Ia DLBCL,22.2%
same,"increased troponin, treatment-related AE of any grade",patients with DLBCL; phase Ia DLBCL,11.1%
same,lymph node pain leading to dose discontinuation,patients with DLBCL; phase Ia DLBCL,5.6%
same,median time to first dose reduction,patients with DLBCL; phase Ia DLBCL,36.0 days
same,"nausea, treatment-related AE of any grade",patients with DLBCL; phase Ia DLBCL,27.8%
same,neutropenia leading to dose discontinuation,patients with DLBCL; phase Ia DLBCL,5.6%
same,"neutropenia, grade ≥3 treatment-related AE",patients with DLBCL; phase Ia DLBCL,16.7%
same,"neutropenia, treatment-related AE of any grade",patients with DLBCL; phase Ia DLBCL,22.2%
same,patients who underwent dose reductions,patients with DLBCL; phase Ia DLBCL,16.7%
same,patients with AEs of any grade,patients with DLBCL; phase Ia DLBCL,100%
same,patients with treatment-related AEs,patients with DLBCL; phase Ia DLBCL,83.3%
same,thrombocytopenia leading to dose discontinuation,patients with DLBCL; phase Ia DLBCL,11.1%
same,"thrombocytopenia, grade ≥3 treatment-related AE",patients with DLBCL; phase Ia DLBCL,44.4%
same,"thrombocytopenia, treatment-related AE of any grade",patients with DLBCL; phase Ia DLBCL,61.1%
same,DLT grade 3 febrile neutropenia,patients with DLBCL; [11],7.7%
same,DLT grade 3 increased troponin,patients with DLBCL; [11],7.7%
same,DLT grade 4 sepsis,patients with DLBCL; [11],7.7%
same,DLT grade 4 thrombocytopenia,patients with DLBCL; [11],23.1%
same,assessable patients with DLTs,patients with DLBCL; [11],4/17
same,total patients with DLTs during the on-treatment period,"patients with DLBCL; phase Ia DLBCL, schedule B",5 n
same,patients with DLTs,"patients with DLBCL; phase Ia DLBCL, schedule B 1.5 mg, MTD evaluation period",1 n
same,patients with DLTs,"patients with DLBCL; phase Ia DLBCL, schedule B 2.0 mg, MTD evaluation period",1 n
same,patients with DLTs,"patients with DLBCL; phase Ia DLBCL, schedule B 2.5 mg, MTD evaluation period",2 n
same,patients with DLTs,"patients with DLBCL; phase Ia DLBCL, schedule B (n = 13), MTD evaluation period",30.8%
same,total patients with DLTs during the on-treatment period,"patients with DLBCL; phase Ia DLBCL, schedule C",3 n
same,patients with DLTs,"patients with DLBCL; phase Ia DLBCL, schedule C, MTD period",No patients receiving schedule C experienced DLTs; also recorded: a No DLBCL patients on schedule C experienced DLTs on BI 894999
